In ChEMBL document CHEMBL4043151, “Synthesis and biological evaluation of Aspergillomarasmine A derivatives as novel NDM-1 inhibitor to overcome antibiotics resistance” (Bioorg Med Chem, 2017):
Converted amounts (≈) assume the structure as drawn.

Assays:
[1] = Inhibition of NDM1 (unknown origin) pre-incubated for 10 mins before nitrocefin substrate addition
[2] = tested on: Klebsiella pneumoniae ATCC BAA-2146; experiment: Inhibition of NDM1 in Klebsiella pneumoniae ATCC BAA-2146 assessed as rescue concentration needed to fully regain activity of meropenem at clinical breakpoint (2.5 uM) by cell-based synergy screening assay
[3] = tested on: Klebsiella pneumoniae ATCC BAA-2146; experiment: Inhibition of NDM1 in Klebsiella pneumoniae ATCC BAA-2146 assessed as potentiation of meropenem-induced microbial growth inhibition by cell-based synergy screening assay
[4] = tested on: Klebsiella pneumoniae ATCC BAA-2146; experiment: Inhibition of NDM1 in Klebsiella pneumoniae ATCC BAA-2146 assessed as potentiation of meropenem-induced microbial growth inhibition by measuring compound MIC by cell-based synergy screening assay
Klebsiella pneumoniae = experiment: Growth inhibition of Klebsiella pneumoniae ATCC BAA-2146
[5] = tested on: Klebsiella pneumoniae ATCC BAA-2146; experiment: Inhibition of NDM1 in Klebsiella pneumoniae ATCC BAA-2146 assessed as potentiation of meropenem-induced microbial growth inhibition by measuring meropenem MIC by cell-based synergy screening assay (Rvb (meropenem MIC alone) = 32.5 microg/ml)
[6] = tested on: Klebsiella pneumoniae ATCC BAA-2146; experiment: Inhibition of NDM1 in Klebsiella pneumoniae ATCC BAA-2146 assessed as potentiation of meropenem-induced microbial growth inhibition by measuring meropenem MIC by cell-based synergy screening assay (Rvb (meropenem MIC alone) = 2 microg/ml)
[7] = tested on: Klebsiella pneumoniae ATCC BAA-2146; experiment: Inhibition of NDM1 in Klebsiella pneumoniae ATCC BAA-2146 assessed as potentiation of meropenem-induced microbial growth inhibition by measuring meropenem MIC by cell-based synergy screening assay (Rvb (meropenem MIC alone) = 16.25 microg/ml)
[8] = tested on: Klebsiella pneumoniae ATCC BAA-2146; experiment: Inhibition of NDM1 in Klebsiella pneumoniae ATCC BAA-2146 assessed as potentiation of meropenem-induced microbial growth inhibition by measuring meropenem MIC by cell-based synergy screening assay (Rvb (meropenem MIC alone) = 65 microg/ml)
[9] = tested on: Klebsiella pneumoniae ATCC BAA-2146; experiment: Inhibition of NDM1 in Klebsiella pneumoniae ATCC BAA-2146 assessed as potentiation of meropenem-induced microbial growth inhibition by measuring meropenem MIC by cell-based synergy screening assay (Rvb (meropenem MIC alone) = 8 microg/ml)

| IC50 ([1]; read-out: IC50) [µM] | MIC [4] [µg/mL] | MIC [5] [µg/mL] | MIC [6] [µg/mL] | MIC [7] [µg/mL] | MIC [8] [µg/mL] | MIC [9] [µg/mL] | IC50 [1] | SMILES | Activity [2] [µM] | fractional inhibitory concentration index (FICI) [3] | MIC (Klebsiella pneumoniae) [µg/mL] |
| --- | --- | --- | --- | --- | --- | --- | --- | --- | --- | --- | --- |
| 22.1 | > 250 | 65 | – | – | – | – | – | C[C@H](NC[C@H](NC[C@H](N)C(=O)O)C(=O)O)C(=O)O | > 100 | < 1.5 | 250 (≈ 950 µM) |
| 7 | > 250 | – | 65 | – | – | – | – | N[C@@H](CN[C@@H](CN[C@@H](CC(=O)O)C(=O)O)C(=O)O)C(=O)O | 25 | < 0.28 | 62.5 (≈ 203 µM) |
| 9.3 | > 250 | – | – | 65 | – | – | – | N[C@H](CN[C@@H](CN[C@@H](CC(=O)O)C(=O)O)C(=O)O)C(=O)O | 50 | < 0.5 | 62.5 (≈ 203 µM) |
| 17.2 | > 298 | – | – | – | 65 | – | – | COC(=O)[C@H](CN[C@@H](CC(=O)O)C(=O)O)NC[C@H](N)C(=O)OC | > 100 | 2 | > 298 |
| 12.8 | > 280 | – | – | – | 65 | – | – | N[C@@H](CN[C@@H](CN1CCC[C@H]1C(=O)O)C(=O)O)C(=O)O | > 100 | 2 | > 280 |
| 8.1 | > 250 | – | – | – | – | 65 | – | N[C@H](CN[C@H](CN[C@@H](CC(=O)O)C(=O)O)C(=O)O)C(=O)O | 50 | < 0.62 | 125 (≈ 407 µM) |
| 10.4 | > 250 | – | – | – | – | 65 | – | C[C@@H](CN[C@@H](CN[C@@H](CC(=O)O)C(=O)O)C(=O)O)C(=O)O | 50 | < 0.62 | 125 (≈ 408 µM) |
| – | > 298 | – | – | – | 65 | – | Not Active | COC(=O)C[C@H](NC[C@H](NC[C@H](N)C(=O)O)C(=O)O)C(=O)OC | > 100 | 2 | > 298 |
| 94 | > 250 | 65 | – | – | – | – | – | C[C@H](CC(=O)O)NC[C@H](NC[C@H](N)C(=O)O)C(=O)O | > 100 | < 1 | 125 (≈ 451 µM) |
| 10.4 | > 250 | 65 | – | – | – | – | – | N[C@@H](CN[C@H](CN[C@@H](CC(=O)O)C(=O)O)C(=O)O)C(=O)O | 100 | < 1 | 125 (≈ 407 µM) |
| 9 | > 406 | 65 | – | – | – | – | – | N[C@@H](CN[C@@H](CN1CCC[C@@H]1C(=O)O)C(=O)O)C(=O)O | > 100 | < 1.5 | 406 (≈ 1400 µM) |
